How the values were obtained:
[1] = target: Autotaxin (ENPP2) (Rattus norvegicus) (UniProt Q64610); experiment: Inhibition of LPA in rat plasma after 18 hrs by LC-MS/MS analysis
[2] = target: Autotaxin (ENPP2) (Homo sapiens) (UniProt Q13822); experiment: Inhibition of LPA in human plasma after 18 hrs by LC-MS/MS analysis

C[C@@H](c1ccc2ccc(O[C@H]3CC[C@@H](C(F)(F)F)CC3)c(C(F)(F)F)c2c1)N1C2CCC1CC(C(=O)O)C2 (some centres not stated)
IC50 [1]: 0.047 µM
IC50 [2]: 0.053 µM

From BindingDB's records for doi:10.1021/acsmedchemlett.1c00211 (Biogen, 2021)
